Measurements taken from PubChem BioAssay AID386.

Biological target: GTP-binding protein Di-Ras1 (Homo sapiens) (UniProt O95057)
Assay: ligand-induced DIRAS1 melting temperature shift – biophysical, recombinant human GTPase, DSF (AID 386)
Conditions: recombinant DIRAS1, DSF thermal shift, SYPRO orange; at 10 µM; protein 2 µM; buffer 10 mM HEPES; pH 7.5; NaCl 150 mM; stronger effect = higher value

GTP-binding protein Di-Ras1 (Homo sapiens), sequence (O95057 whole entry, looked up): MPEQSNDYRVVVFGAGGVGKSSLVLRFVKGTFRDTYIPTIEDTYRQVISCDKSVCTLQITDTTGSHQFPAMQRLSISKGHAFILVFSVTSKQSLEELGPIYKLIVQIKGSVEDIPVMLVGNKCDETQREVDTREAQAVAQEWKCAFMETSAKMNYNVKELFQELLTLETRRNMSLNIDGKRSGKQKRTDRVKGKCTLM

Tm shift [Celsius]	Structure (SMILES)
2.1	NS(=O)(=O)c1ccc(Nc2nc(OCC3CCCCC3)c3[nH]cnc3n2)cc1
3.3	O=c1c(O)c(-c2ccc(O)c(O)c2)oc2cc(O)cc(O)c12
4.4	COc1ccc(S(O)(O)N(CCO)c2ccccc2CN(C)C/C=C/c2ccc(Cl)cc2)cc1

Structure (SMILES)	Tm shift [Celsius]
CN[C@@H]1C[C@H]2OC(C)([C@@H]1OC)n1c3ccccc3c3c4c(c5c6ccccc6n2c5c31)C(=O)NC4	2.6
